Measurements as given in patent US9403823B2, “Protein kinase inhibitors” (ORIBASE PHARMA, priority 2012, dated 2016).
Like-named read-outs stand apart in the source and are kept apart here.

What was measured:
BRAF = biological target: T1, BRAF (Homo sapiens, UniProt P15056); experiment: In vitro kinase assay (Z'-LYTE), BRAF; type: biochemical; details: read-out: % of inhibition of the kinase compared to the control
T1 construct: purchased Invitrogen
Method: (§1) 1) In Vitro Kinase Assays (Table 10 to Table 21)
(§2) The inhibitory activity of the compounds on several kinases including BRAF, EGFR (ErbB1), EGFR (ErbB1) T790M L858R, FGFR2, KDR (VEGFR2), PDGFRA (PDGFR alpha), SRC and other was evaluated by Invitrogen using the Z′-LYTE® technology. Briefly, the Z′-LYTE® biochemical assay employs a fluorescence-based, coupled-enzyme format and is based on the differential sensitivity of phosphorylated and non-phosphorylated peptides to proteolytic cleavage. The peptide substrate is labeled with two fluorophores—one at each end—that make up a FRET pair. A ratiometric method, which calculates the ratio (the Emission Ratio) of donor emission to acceptor emission after excitation of the donor fluorophore at 400 nm, is used to quantitate reaction progress.
(§3) The compounds are screened in 1% DMSO (final) in the well. For 10 point titrations, 3-fold serial dilutions are conducted from the starting concentration. All Peptide/Kinase Mixtures are diluted to a 2× working concentration in the appropriate Kinase Buffer. All ATP Solutions are diluted to a 4× working concentration in Kinase Buffer (50 mM HEPES pH 7.5, 0.01% BRIJ-35, 10 mM MgCl2, 1 mM EGTA). ATP Km apparent is previously determined using a Z′-LYTE® assay.
(§4) Each compound was incubated at a concentration of 100 nM (excepted to test the activity against ABL and ABL T315I for which the compounds were incubated at a concentration of 10 μM) and the tables 10 to 21 summarize the results obtained showing the inhibitory power of a compound.

EGFR (ErbB1) = biological target: T2, EGFR (ErbB1) (Homo sapiens, UniProt P00533); experiment: In vitro kinase assay (Z'-LYTE), EGFR (ErbB1); type: biochemical; details: read-out: % of inhibition of the kinase compared to the control
T2 construct: purchased Invitrogen
Method: as §1, §2, §3, §4

FGFR2 = biological target: T3, FGFR2 (Homo sapiens, UniProt P21802); experiment: In vitro kinase assay (Z'-LYTE), FGFR2; type: biochemical; details: read-out: % of inhibition of the kinase compared to the control
T3 construct: purchased Invitrogen
Method: as §1, §2, §3, §4

KDR (VEGFR2) = biological target: T4, KDR (VEGFR2) (Homo sapiens, UniProt P35968); experiment: In vitro kinase assay (Z'-LYTE), KDR (VEGFR2); type: biochemical; details: read-out: % of inhibition of the kinase compared to the control
T4 construct: purchased Invitrogen
Method: as §1, §2, §3, §4

A549 cell line = experiment: In vitro cell proliferation assay (MTT), A549; type: cell-based; details: Homo sapiens, read-out: EC50, anti-proliferative activity
Method: (§5) 2) In Vitro Cell Proliferation Assays (Table 22 to Table 35)
(§6) Cancer cell lines (5×10^3 cells per well) or HUVEC (1×10^4 cells per well) or HRMEC (1×10^4 cells per well) were distributed in 96-well plates and incubating in duplicate with escalating concentrations (10 nM to 3 μM) of compounds for 72 hr. Cell proliferation was measured using MTT (3[4,5-dimethylthiazol-2-yl]-2,5-diphenyltetrazolium bromide).

HepG2 cell line = experiment: In vitro cell proliferation assay (MTT), HepG2; type: cell-based; details: Homo sapiens, read-out: EC50, anti-proliferative activity
Method: as §5, §6

HUVEC = experiment: In vitro cell proliferation assay (MTT), HUVEC; type: cell-based; details: Homo sapiens, read-out: EC50, anti-proliferative activity
Method: as §5, §6

MDA-MB-231 cell line = experiment: In vitro cell proliferation assay (MTT), MDA-MB-231; type: cell-based; details: Homo sapiens, read-out: EC50, anti-proliferative activity
Method: as §5, §6

HeLa cell line = experiment: In vitro cell proliferation assay (MTT), HeLa; type: cell-based; details: Homo sapiens, read-out: EC50, anti-proliferative activity
Method: as §5, §6

EGFR (ErbB1) T790M L858R = biological target: T5, EGFR (ErbB1) T790M L858R (Homo sapiens, UniProt P00533, L858R/T790M); experiment: In vitro kinase assay (Z'-LYTE), EGFR (ErbB1) T790M L858R; type: biochemical; details: read-out: % of inhibition of the kinase compared to the control
T5 construct: purchased Invitrogen
Method: as §1, §2, §3, §4

PDGFRA (PDGFR alpha) = biological target: T6, PDGFRA (PDGFR alpha) (Homo sapiens, UniProt P16234); experiment: In vitro kinase assay (Z'-LYTE), PDGFRA; type: biochemical; details: read-out: % of inhibition of the kinase compared to the control
T6 construct: purchased Invitrogen
Method: as §1, §2, §3, §4

SRC = biological target: T7, SRC (Homo sapiens, UniProt P12931); experiment: In vitro kinase assay (Z'-LYTE), SRC; type: biochemical; details: read-out: % of inhibition of the kinase compared to the control
T7 construct: purchased Invitrogen
Method: as §1, §2, §3, §4

HT29 cell line = experiment: In vitro cell proliferation assay (MTT), HT29; type: cell-based; details: Homo sapiens, HT-29; HT29, 72 hr, MTT; read-out: EC50, anti-proliferative activity
Method: as §5, §6

H1975 cell line = experiment: In vitro cell proliferation assay (MTT), H1975; type: cell-based; details: Homo sapiens, NCI-H1975; H1975, 72 hr, MTT; read-out: EC50, anti-proliferative activity
Method: as §5, §6

HuH7 cell line = experiment: In vitro cell proliferation assay (MTT), HuH7; type: cell-based; details: Homo sapiens, Huh-7; HuH7, 72 hr, MTT; read-out: EC50, anti-proliferative activity
Method: as §5, §6

T2 sequence (P00533 25-1210): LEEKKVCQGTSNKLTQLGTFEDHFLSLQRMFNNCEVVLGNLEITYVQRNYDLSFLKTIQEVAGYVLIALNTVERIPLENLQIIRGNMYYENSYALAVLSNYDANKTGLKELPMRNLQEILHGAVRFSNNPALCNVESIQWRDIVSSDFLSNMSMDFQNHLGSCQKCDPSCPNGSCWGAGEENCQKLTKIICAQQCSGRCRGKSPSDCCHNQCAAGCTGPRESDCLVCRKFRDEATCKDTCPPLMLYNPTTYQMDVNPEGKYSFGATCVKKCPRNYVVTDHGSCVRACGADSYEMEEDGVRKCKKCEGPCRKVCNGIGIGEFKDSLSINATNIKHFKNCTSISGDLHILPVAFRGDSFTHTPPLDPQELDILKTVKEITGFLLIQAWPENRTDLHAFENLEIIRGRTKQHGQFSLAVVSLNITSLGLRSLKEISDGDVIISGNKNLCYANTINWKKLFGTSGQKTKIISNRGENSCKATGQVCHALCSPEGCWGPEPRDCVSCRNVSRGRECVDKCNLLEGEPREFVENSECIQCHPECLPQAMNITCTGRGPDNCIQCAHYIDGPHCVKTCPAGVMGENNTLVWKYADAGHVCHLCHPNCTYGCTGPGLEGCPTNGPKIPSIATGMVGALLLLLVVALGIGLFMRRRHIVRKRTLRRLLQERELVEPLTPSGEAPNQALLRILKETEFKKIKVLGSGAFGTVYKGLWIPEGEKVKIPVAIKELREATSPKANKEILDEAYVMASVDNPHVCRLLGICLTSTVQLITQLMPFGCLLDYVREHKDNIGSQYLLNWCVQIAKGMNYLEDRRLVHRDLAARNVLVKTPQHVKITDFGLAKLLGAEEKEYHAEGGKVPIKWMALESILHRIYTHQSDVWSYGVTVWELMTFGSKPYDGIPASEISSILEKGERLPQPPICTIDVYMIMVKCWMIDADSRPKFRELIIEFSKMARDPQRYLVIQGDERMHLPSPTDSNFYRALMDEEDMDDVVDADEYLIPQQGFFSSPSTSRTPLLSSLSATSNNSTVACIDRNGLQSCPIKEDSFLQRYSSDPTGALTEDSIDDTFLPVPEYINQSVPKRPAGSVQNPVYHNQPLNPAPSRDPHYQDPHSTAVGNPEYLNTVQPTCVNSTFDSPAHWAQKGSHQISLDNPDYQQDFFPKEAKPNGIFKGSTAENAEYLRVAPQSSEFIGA
T3 sequence (P21802 22-821): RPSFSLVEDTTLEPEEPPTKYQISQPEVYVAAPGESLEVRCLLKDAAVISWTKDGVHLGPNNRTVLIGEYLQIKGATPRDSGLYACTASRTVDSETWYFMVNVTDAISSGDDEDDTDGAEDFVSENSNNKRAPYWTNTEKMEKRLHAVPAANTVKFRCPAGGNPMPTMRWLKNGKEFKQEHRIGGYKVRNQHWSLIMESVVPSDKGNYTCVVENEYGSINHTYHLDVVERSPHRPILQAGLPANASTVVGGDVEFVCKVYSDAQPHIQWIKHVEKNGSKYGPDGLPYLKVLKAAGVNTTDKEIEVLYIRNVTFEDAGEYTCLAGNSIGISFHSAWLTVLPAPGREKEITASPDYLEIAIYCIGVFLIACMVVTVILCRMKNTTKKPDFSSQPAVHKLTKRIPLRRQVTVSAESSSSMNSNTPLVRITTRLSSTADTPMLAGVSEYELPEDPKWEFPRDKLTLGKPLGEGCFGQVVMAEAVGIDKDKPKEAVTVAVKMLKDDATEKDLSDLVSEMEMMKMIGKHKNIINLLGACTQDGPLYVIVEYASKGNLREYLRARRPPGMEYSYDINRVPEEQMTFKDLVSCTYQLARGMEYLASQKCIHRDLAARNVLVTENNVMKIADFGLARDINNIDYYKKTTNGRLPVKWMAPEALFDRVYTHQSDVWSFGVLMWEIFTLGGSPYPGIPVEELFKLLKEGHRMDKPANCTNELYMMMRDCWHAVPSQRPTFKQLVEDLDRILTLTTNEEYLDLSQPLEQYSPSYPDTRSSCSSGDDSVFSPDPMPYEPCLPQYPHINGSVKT
T1 sequence (P15056 whole entry): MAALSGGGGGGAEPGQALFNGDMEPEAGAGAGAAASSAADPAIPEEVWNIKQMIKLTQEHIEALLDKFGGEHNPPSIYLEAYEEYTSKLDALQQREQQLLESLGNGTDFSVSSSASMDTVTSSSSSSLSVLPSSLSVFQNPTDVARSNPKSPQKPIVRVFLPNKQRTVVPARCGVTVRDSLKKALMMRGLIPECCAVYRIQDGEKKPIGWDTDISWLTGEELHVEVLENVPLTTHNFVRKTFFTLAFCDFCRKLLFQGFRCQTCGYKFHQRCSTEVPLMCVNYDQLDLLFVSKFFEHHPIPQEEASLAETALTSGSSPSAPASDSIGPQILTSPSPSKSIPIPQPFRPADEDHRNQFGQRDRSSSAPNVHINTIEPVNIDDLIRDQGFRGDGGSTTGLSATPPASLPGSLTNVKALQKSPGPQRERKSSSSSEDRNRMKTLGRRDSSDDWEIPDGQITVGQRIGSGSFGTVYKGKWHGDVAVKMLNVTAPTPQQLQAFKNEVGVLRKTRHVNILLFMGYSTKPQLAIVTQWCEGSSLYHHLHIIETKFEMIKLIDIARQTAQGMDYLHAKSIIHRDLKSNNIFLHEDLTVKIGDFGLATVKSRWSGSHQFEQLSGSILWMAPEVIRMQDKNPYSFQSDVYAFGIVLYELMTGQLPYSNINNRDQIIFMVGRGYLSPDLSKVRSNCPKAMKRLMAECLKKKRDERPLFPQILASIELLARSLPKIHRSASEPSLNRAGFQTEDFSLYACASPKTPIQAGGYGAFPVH
T4 sequence (P35968 20-1356): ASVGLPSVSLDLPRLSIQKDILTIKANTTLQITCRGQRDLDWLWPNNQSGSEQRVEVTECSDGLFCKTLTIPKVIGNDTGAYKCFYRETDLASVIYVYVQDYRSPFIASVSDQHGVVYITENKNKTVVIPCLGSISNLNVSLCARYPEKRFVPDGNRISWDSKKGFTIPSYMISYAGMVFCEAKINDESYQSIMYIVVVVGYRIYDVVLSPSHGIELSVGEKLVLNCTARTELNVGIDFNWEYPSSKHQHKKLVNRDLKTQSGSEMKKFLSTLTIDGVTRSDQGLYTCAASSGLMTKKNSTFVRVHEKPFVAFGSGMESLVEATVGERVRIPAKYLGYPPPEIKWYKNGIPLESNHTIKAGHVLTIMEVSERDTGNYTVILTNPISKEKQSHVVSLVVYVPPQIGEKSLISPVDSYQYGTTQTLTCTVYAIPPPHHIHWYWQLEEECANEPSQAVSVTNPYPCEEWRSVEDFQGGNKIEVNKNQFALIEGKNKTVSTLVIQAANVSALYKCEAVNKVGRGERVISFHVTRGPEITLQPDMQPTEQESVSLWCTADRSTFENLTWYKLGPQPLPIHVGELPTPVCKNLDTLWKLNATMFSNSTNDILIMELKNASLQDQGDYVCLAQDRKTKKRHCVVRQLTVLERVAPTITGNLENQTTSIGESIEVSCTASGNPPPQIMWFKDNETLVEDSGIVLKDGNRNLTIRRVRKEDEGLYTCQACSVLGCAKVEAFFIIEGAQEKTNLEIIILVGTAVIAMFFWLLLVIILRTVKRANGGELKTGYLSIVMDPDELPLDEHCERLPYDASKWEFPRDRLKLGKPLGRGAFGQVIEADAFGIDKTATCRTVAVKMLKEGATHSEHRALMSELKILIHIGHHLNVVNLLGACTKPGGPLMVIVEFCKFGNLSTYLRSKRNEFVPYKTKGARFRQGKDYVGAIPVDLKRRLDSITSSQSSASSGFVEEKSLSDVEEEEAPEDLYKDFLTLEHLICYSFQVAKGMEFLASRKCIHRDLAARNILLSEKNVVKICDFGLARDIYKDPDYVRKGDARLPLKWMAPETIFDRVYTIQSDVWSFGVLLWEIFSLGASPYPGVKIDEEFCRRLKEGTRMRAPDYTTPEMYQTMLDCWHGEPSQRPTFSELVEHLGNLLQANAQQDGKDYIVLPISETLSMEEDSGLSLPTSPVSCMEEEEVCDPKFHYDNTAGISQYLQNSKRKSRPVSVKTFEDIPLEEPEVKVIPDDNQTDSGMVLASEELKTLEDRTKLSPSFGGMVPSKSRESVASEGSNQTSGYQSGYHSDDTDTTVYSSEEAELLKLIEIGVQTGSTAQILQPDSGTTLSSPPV
T7 sequence (P12931 whole entry): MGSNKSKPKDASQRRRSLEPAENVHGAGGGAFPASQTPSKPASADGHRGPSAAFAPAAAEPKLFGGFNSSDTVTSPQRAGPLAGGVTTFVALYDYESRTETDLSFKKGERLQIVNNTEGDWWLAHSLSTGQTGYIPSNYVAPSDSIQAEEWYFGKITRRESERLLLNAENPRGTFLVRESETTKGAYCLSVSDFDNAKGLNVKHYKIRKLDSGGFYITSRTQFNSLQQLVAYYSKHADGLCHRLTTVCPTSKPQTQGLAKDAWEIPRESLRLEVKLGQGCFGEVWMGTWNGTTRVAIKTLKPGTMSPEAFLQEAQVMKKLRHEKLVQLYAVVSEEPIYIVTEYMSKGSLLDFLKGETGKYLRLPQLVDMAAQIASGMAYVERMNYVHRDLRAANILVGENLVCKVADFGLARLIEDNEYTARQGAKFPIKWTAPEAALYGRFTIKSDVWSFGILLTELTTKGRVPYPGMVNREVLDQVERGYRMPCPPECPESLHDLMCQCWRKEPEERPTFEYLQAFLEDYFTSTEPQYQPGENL

Row | inhibition at 0.1 µM (BRAF) [%] | inhibition at 0.1 µM (EGFR (ErbB1)) [%] | inhibition at 0.1 µM (FGFR2) [%] | inhibition at 0.1 µM (KDR (VEGFR2)) [%] | EC50 (HepG2 cell line; HepG2, 72 h) [nM] | EC50 (MDA-MB-231 cell line; MDA-MB-231, 72 h) [nM] | inhibition at 0.1 µM (PDGFRA (PDGFR alpha)) [%] | inhibition at 0.1 µM (SRC) [%] | EC50 (HeLa cell line; 72 hr, MTT) [nM] | SMILES | EC50 (HUVEC; 72 h) [nM] | also measured
1 |  |  |  |  | ≤ 100 | 100 to 1000 |  |  | ≥ 1000 | CC(=O)c1cc2cc(NCc3cc(NC(=O)c4cc(N5CCN(C)CC5)cc(C(F)(F)F)c4)ccc3F)cnc2[nH]1 [OR1060, N-{3-[(2-Acetyl-1H-pyrrolo[2,3-b]pyridin-5-ylamino)-methyl]-4-fluoro-phenyl}-3-(4-methyl-piperazin-1-yl)-5-trifluoromethyl-benzamide] | 100 to 1000 | EC50 (A549 cell line; A549, 72 h): 100 to 1000 nM
2 |  |  |  |  |  |  |  |  | ≥ 1000 | CC(=O)c1cc2cc(NCc3cc(NC(=O)C4CCC(C(F)(F)F)CC4)ccc3F)cnc2[nH]1 (stereo not drawn) [OR1058, 4-Trifluoromethyl-cyclohexanecarboxylic acid {3-[(2-acetyl-1H-pyrrolo[2,3-b]pyridin-5-ylamino)-methyl]-4-fluoro-phenyl}-amide] |  | EC50 (A549 cell line; A549, 72 hr, MTT): ≥ 1000 nM; EC50 (HepG2 cell line; HepG2, 72 hr, MTT): ≥ 1000 nM; EC50 (HUVEC; 72 hr, MTT): ≥ 1000 nM; EC50 (MDA-MB-231 cell line; MDA-MB-231, 72 hr, MTT): ≥ 1000 nM
3 |  |  |  |  | 100 to 1000 | 100 to 1000 |  |  | ≥ 1000 | CCCCCCNC(=O)c1cc2cc(NCc3cc(NC(=O)c4ccc(CN5CCN(C)CC5)c(C(F)(F)F)c4)ccc3C)cnc2[nH]1 [OR1069, 5-{2-Methyl-5-[4-(4-methyl-piperazin-1-ylmethyl)-3-trifluoromethyl-benzoylamino]-benzylamino}-1H-pyrrolo[2,3-b]pyridine-2-carboxylic acid hexylamide] | 100 to 1000 | 

Second part, the compound before the results:

Row | SMILES | inhibition at 0.1 µM (BRAF) [%] | inhibition at 0.1 µM (EGFR (ErbB1)) [%] | inhibition at 0.1 µM (FGFR2) [%] | inhibition at 0.1 µM (KDR (VEGFR2)) [%] | EC50 (HepG2 cell line; HepG2, 72 h) [nM] | EC50 (MDA-MB-231 cell line; MDA-MB-231, 72 h) [nM] | inhibition at 0.1 µM (PDGFRA (PDGFR alpha)) [%] | inhibition at 0.1 µM (SRC) [%] | EC50 (HeLa cell line; 72 hr, MTT) [nM] | EC50 (HUVEC; 72 h) [nM] | also measured
4 | CC(=O)c1cc2cc(NCc3cc(NC(=O)c4ccc(CN5CCN(C)CC5)c(C(F)(F)F)c4)ccc3F)cnc2[nH]1 [OR0972, N-{3-[(2-Acetyl-1H-pyrrolo[2,3-b]pyridin-5-ylamino)-methyl]-4-fluoro-phenyl}-4-(4-methyl-piperazin-1-ylmethyl)-3-trifluoromethyl-benzamide] | < 50 | ≥ 50 | ≥ 50 | ≥ 50 | ≤ 100 | ≤ 100 |  |  |  | 100 to 1000 | EC50 (A549 cell line; A549, 72 h): 100 to 1000 nM; EC50 (HeLa cell line; 72 h): 100 to 1000 nM
5 | CC(=O)c1cc2cc(NC(=O)c3cc(NC(=O)c4ccc(CN5CCN(C)CC5)cc4)ccc3C)cnc2[nH]1 [OR0780, N-(2-Acetyl-1H-pyrrolo[2,3-b]pyridin-5-yl)-2-methyl-5-[4-(4-methyl-piperazin-1-ylmethyl)-benzoylamino]-benzamide] | < 50 | < 50 | < 50 | < 50 |  |  | ≥ 50 | < 50 |  |  | inhibition at 0.1 µM (EGFR (ErbB1) T790M L858R): < 50%; EC50 (A549 cell line; A549, 72 hr, MTT): ≥ 1000 nM; EC50 (HT29 cell line): ≥ 1000 nM; EC50 (H1975 cell line): ≥ 1000 nM; EC50 (HUVEC; 72 hr, MTT): ≥ 1000 nM
6 | Cc1ccc(NC(=O)c2ccc(CN3CCN(C)CC3)cc2)cc1CNc1cnc2[nH]c(C(=O)O)cc2c1 [OR0692, 5-{2-Methyl-5-[4-(4-methyl-piperazin-1-ylmethyl)-benzoylamino]-benzylamino}-1H-pyrrolo[2,3-b]pyridine-2-carboxylic acid] | < 50 | ≥ 50 | < 50 | ≥ 50 |  |  | ≥ 50 | ≥ 50 |  |  | inhibition at 0.1 µM (EGFR (ErbB1) T790M L858R): < 50%
7 | CC(=O)c1cc2cc(NCc3cc(NC(=O)c4ccc(CN5CCN(C)CC5)cc4)ccc3C)cnc2[nH]1 [OR0734, N-{3-[(2-Acetyl-1H-pyrrolo[2,3-b]pyridin-5-ylamino)-methyl]-4-methyl-phenyl}-4-(4-methyl-piperazin-1-ylmethyl)-benzamide] | < 50 | ≥ 50 | < 50 | ≥ 50 |  |  | ≥ 50 | ≥ 50 |  |  | EC50 (HuH7 cell line): ≥ 1000 nM
